Data as given in PubChem BioAssay (NCI).
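Five compound concentrations were applied to cells in 96-well plates for 48 hours; endpoints were derived by simple linear interpolation of the resulting dose-response curve. GI50 marks 50% less growth. TGI: concentration producing complete growth inhibition.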

Key:
Assay in all cases: growth of human tumour cells (NCI), 48 h
SNB-75 CNS = tested on: SNB-75 CNS
A549 NSCLC = tested on: A549 NSCLC
SR leukemia = tested on: SR leukemia
NCI-H23 lung = tested on: NCI-H23 lung
CCRF-CEM leukemia = tested on: CCRF-CEM leukemia
SW-620 colon = tested on: SW-620 colon
HCT-116 colon = tested on: HCT-116 colon
SF-295 CNS = tested on: SF-295 CNS
IGROV1 ovarian = tested on: IGROV1 ovarian
HS 578T breast = tested on: HS 578T breast
NCI-H522 lung = tested on: NCI-H522 lung
OVCAR-3 ovarian = tested on: OVCAR-3 ovarian
SF-539 CNS = tested on: SF-539 CNS
OVCAR-4 ovarian = tested on: OVCAR-4 ovarian
SK-OV-3 ovarian = tested on: SK-OV-3 ovarian
BT-549 breast = tested on: BT-549 breast
T-47D breast = tested on: T-47D breast
KM12 colon = tested on: KM12 colon
NCI-H226 lung = tested on: NCI-H226 lung
NCI/ADR-RES ovarian = tested on: NCI/ADR-RES ovarian
MDA-MB-231 breast = tested on: MDA-MB-231 breast
A498 renal = tested on: A498 renal
SK-MEL-5 melanoma = tested on: SK-MEL-5 melanoma
HL-60(TB) leukemia = tested on: HL-60(TB) leukemia
NCI-H460 lung = tested on: NCI-H460 lung
MCF7 breast = tested on: MCF7 breast
UO-31 renal = tested on: UO-31 renal
SK-MEL-2 melanoma = tested on: SK-MEL-2 melanoma
RPMI-8226 leukemia = tested on: RPMI-8226 leukemia
M14 melanoma = tested on: M14 melanoma
CAKI-1 renal = tested on: CAKI-1 renal
ACHN renal = tested on: ACHN renal
SK-MEL-28 melanoma = tested on: SK-MEL-28 melanoma
K-562 leukemia = tested on: K-562 leukemia
SF-268 CNS = tested on: SF-268 CNS
MDA-MB-435 = tested on: MDA-MB-435
PC-3 prostate = tested on: PC-3 prostate
U251 CNS = tested on: U251 CNS
HCT-15 colon = tested on: HCT-15 colon
MALME-3M melanoma = tested on: MALME-3M melanoma
HCC-2998 colon = tested on: HCC-2998 colon
SNB-19 CNS = tested on: SNB-19 CNS
OVCAR-8 ovarian = tested on: OVCAR-8 ovarian
HOP-92 NSCLC = tested on: HOP-92 NSCLC
LOX IMVI melanoma = tested on: LOX IMVI melanoma
HT29 colon = tested on: HT29 colon
TK-10 renal = tested on: TK-10 renal
MOLT-4 leukemia = tested on: MOLT-4 leukemia
COLO 205 colon = tested on: COLO 205 colon
OVCAR-5 ovarian = tested on: OVCAR-5 ovarian
786-0 renal = tested on: 786-0 renal
DU-145 prostate = tested on: DU-145 prostate
SN12C renal = tested on: SN12C renal
RXF 393 renal = tested on: RXF 393 renal
UACC-62 melanoma = tested on: UACC-62 melanoma
UACC-257 melanoma = tested on: UACC-257 melanoma
HOP-62 NSCLC = tested on: HOP-62 NSCLC

For `Cc1ccc2c(NCCCN(C)C)c3c(C)nn(C)c3nc2c1`, the GI50 (SNB-75 CNS) was 1.89 µM, the TGI (SNB-75 CNS) was 10.9 µM and the GI50 (A549 NSCLC) was 3.45 µM. The TGI (A549 NSCLC) was 25.1 µM, the GI50 (SR leukemia) was 3.36 µM and the TGI (SR leukemia) was > 100 µM. It also gave a GI50 (NCI-H23 lung) of 5.29 µM, a TGI (NCI-H23 lung) of 25.3 µM and a GI50 (CCRF-CEM leukemia) of 5.09 µM. For the same compound, the TGI (CCRF-CEM leukemia) was 88.8 µM, the GI50 (SW-620 colon) was 2.96 µM and the TGI (SW-620 colon) was 35.5 µM. The GI50 (HCT-116 colon) was 3.04 µM, the TGI (HCT-116 colon) was 25.1 µM and the GI50 (SF-295 CNS) was 3.83 µM. For the same compound, the TGI (SF-295 CNS) was 28.4 µM, the GI50 (IGROV1 ovarian) was 4.17 µM and the TGI (IGROV1 ovarian) was 29.6 µM. It also gave a GI50 (HS 578T breast) of 4.24 µM, a TGI (HS 578T breast) of 33.5 µM and a GI50 (NCI-H522 lung) of 2.76 µM. It also gave a TGI (NCI-H522 lung) of 12.7 µM, a GI50 (OVCAR-3 ovarian) of 4.13 µM and a TGI (OVCAR-3 ovarian) of 24.8 µM. It also gave a GI50 (SF-539 CNS) of 4.7 µM, a TGI (SF-539 CNS) of 19.6 µM and a GI50 (OVCAR-4 ovarian) of 3.06 µM. The TGI (OVCAR-4 ovarian) was 16.1 µM, the GI50 (SK-OV-3 ovarian) was 7.26 µM and the TGI (SK-OV-3 ovarian) was 68.7 µM. It also gave a GI50 (BT-549 breast) of 13.7 µM, a TGI (BT-549 breast) of 31 µM and a GI50 (T-47D breast) of 9.5 µM. It also gave a TGI (T-47D breast) of 98.8 µM, a GI50 (KM12 colon) of 4.55 µM and a TGI (KM12 colon) of 31.8 µM. It also gave a GI50 (NCI-H226 lung) of 3.34 µM, a TGI (NCI-H226 lung) of 27 µM and a GI50 (NCI/ADR-RES ovarian) of 3.34 µM. It also gave a TGI (NCI/ADR-RES ovarian) of 66.4 µM, a GI50 (MDA-MB-231 breast) of 3.86 µM and a TGI (MDA-MB-231 breast) of 19.4 µM. It also gave a GI50 (A498 renal) of 1.8 µM, a TGI (A498 renal) of 7.86 µM and a GI50 (SK-MEL-5 melanoma) of 3.66 µM. The TGI (SK-MEL-5 melanoma) was 14.3 µM, the GI50 (HL-60(TB) leukemia) was 5.08 µM and the TGI (HL-60(TB) leukemia) was 22.9 µM. The GI50 (NCI-H460 lung) was 2.96 µM, the TGI (NCI-H460 lung) was 10.2 µM and the GI50 (MCF7 breast) was 2.53 µM. For the same compound, the TGI (MCF7 breast) was 7.04 µM, the GI50 (UO-31 renal) was 2.68 µM and the TGI (UO-31 renal) was 14 µM. For the same compound, the GI50 (SK-MEL-2 melanoma) was 3.64 µM, the TGI (SK-MEL-2 melanoma) was 11.1 µM and the GI50 (RPMI-8226 leukemia) was 3.3 µM. The TGI (RPMI-8226 leukemia) was 14.4 µM, the GI50 (M14 melanoma) was 4.34 µM and the TGI (M14 melanoma) was 17.6 µM. It also gave a GI50 (CAKI-1 renal) of 3.04 µM, a TGI (CAKI-1 renal) of 38.1 µM and a GI50 (ACHN renal) of 2.25 µM. The TGI (ACHN renal) was 16.9 µM, the GI50 (SK-MEL-28 melanoma) was 4.44 µM and the TGI (SK-MEL-28 melanoma) was 17.3 µM. The GI50 (K-562 leukemia) was 3.14 µM, the TGI (K-562 leukemia) was > 100 µM and the GI50 (SF-268 CNS) was 4.18 µM. It also gave a TGI (SF-268 CNS) of 23.9 µM, a GI50 (MDA-MB-435) of 3.28 µM and a TGI (MDA-MB-435) of 14 µM. The GI50 (PC-3 prostate) was 3.59 µM, the TGI (PC-3 prostate) was 16.3 µM and the GI50 (U251 CNS) was 4.77 µM. It also gave a TGI (U251 CNS) of 29.4 µM, a GI50 (HCT-15 colon) of 2.59 µM and a TGI (HCT-15 colon) of 18.3 µM. For the same compound, the GI50 (MALME-3M melanoma) was 4.97 µM, the TGI (MALME-3M melanoma) was 22 µM and the GI50 (HCC-2998 colon) was 5.83 µM. The TGI (HCC-2998 colon) was 22.4 µM, the GI50 (SNB-19 CNS) was 3.96 µM and the TGI (SNB-19 CNS) was 39.1 µM. For the same compound, the GI50 (OVCAR-8 ovarian) was 3.73 µM, the TGI (OVCAR-8 ovarian) was 21.7 µM and the GI50 (HOP-92 NSCLC) was 1.6 µM. It also gave a TGI (HOP-92 NSCLC) of 5.99 µM, a GI50 (LOX IMVI melanoma) of 2.22 µM and a TGI (LOX IMVI melanoma) of 5.64 µM. It also gave a GI50 (HT29 colon) of 2.62 µM, a TGI (HT29 colon) of 8.88 µM and a GI50 (TK-10 renal) of 2.89 µM. It also gave a TGI (TK-10 renal) of 14 µM, a GI50 (MOLT-4 leukemia) of 5.11 µM and a TGI (MOLT-4 leukemia) of 33.1 µM. The GI50 (COLO 205 colon) was 3.03 µM, the TGI (COLO 205 colon) was 11.4 µM and the GI50 (OVCAR-5 ovarian) was 3.69 µM. It also gave a TGI (OVCAR-5 ovarian) of 22.4 µM, a GI50 (786-0 renal) of 4.99 µM and a TGI (786-0 renal) of 26.5 µM. The GI50 (DU-145 prostate) was 3.88 µM, the TGI (DU-145 prostate) was 37.7 µM and the GI50 (SN12C renal) was 3.52 µM. The TGI (SN12C renal) was 29.9 µM, the GI50 (RXF 393 renal) was 2.71 µM and the TGI (RXF 393 renal) was 12.1 µM. It also gave a GI50 (UACC-62 melanoma) of 3.9 µM, a TGI (UACC-62 melanoma) of 16.4 µM and a GI50 (UACC-257 melanoma) of 3.9 µM. It also gave a TGI (UACC-257 melanoma) of 14.4 µM, a GI50 (HOP-62 NSCLC) of 6.46 µM and a TGI (HOP-62 NSCLC) of 60.2 µM.
